Consider 63 compounds from PubChem BioAssay AID816 (SRMLSC, 2007).

Active and inactive are the calls of the source. The rule behind the calls is not given here.

The test system of this assay is S. cerevisiae GAL1 promoter reporter activation counterscreen. As to the kind of experiment: yeast Gal1p promoter activation – S. cerevisiae, artefact control for yeast lifespan extension project (AID 816).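 Note: yeast growth read after 24 h of incubation with compounds.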
For `O=C(c1ccccc1)C(CN1CCCC1)c1ccccc1` (stereo not drawn), the EC50 was > 40 µM (inactive).
The value for `C/C(=N\NC(=O)c1cccnc1)c1c(O)cc(C)oc1=O` was > 40 µM (inactive); that for `O=C(CS(=O)c1ccc(C(F)(F)F)cc1[N+](=O)[O-])Oc1ccccc1` (stereo not drawn) was > 40 µM (inactive); that for `O=[N+]([O-])c1cc2oc3c(c2c(C=NCc2ccccc2)c1O)CCCC3` was > 40 µM (inactive).
Turning to `Cc1ccnc(SCc2cc(=O)c(OC(=O)c3ccco3)co2)n1`, the EC50 is > 40 µM (inactive).
The value for `CCOC(=O)c1cnc(-c2ccccc2)nc1Oc1ccc(Cl)cc1` was > 40 µM (inactive).
The value for `CC(=O)Oc1c(C(=O)c2nnc(C)o2)c(=O)n(C)c2ccccc12` was > 40 µM (inactive).
The value for `COc1ccc2c(=O)c3c(=O)n(Cc4ccco4)c(-c4ccco4)nc3oc2c1` was > 40 µM (inactive).
In the case of `CCCCCC1CC1C(=O)N/N=C/c1ccc(N(C)C)cc1` (stereo not drawn), the EC50 is > 40 µM (inactive).
The value for `Oc1ccc2ccccc2c1/C=N/c1nccs1` was > 40 µM (inactive).
Consider `CN1C(=O)NC(c2ccc(O)cc2)C(C(=O)c2cccs2)C1(O)C(F)(F)F` (stereo not drawn), for which the EC50 was > 40 µM (inactive).
The value for `Cc1cccc(N2C(=O)/C(=C\c3ccc(OC(F)F)cc3)c3ccccc3C2=O)c1` was > 40 µM (inactive); that for `CCOc1cc(/C=C\[N+](=O)[O-])ccc1OCC(=O)Nc1ccccc1C` was > 40 µM (inactive); that for `Cc1ccc(C(=O)OC2=CC(=O)CC(C)(C)C2)cc1` was > 40 µM (inactive).
For `CCOc1ccc2nc(NCCNC(=O)Nc3ccccc3)c(C#N)cc2c1` the value was > 40 µM (inactive); for `CCOC(=O)CCCNC(=O)COc1ccccc1C#N`, > 40 µM (inactive); for `Cc1nn(-c2c(Cl)cc(Cl)cc2Cl)c(=O)c2ccccc12`, > 40 µM (inactive).
For `CC1(C)CC2c3cccc(C(=O)O)c3C(=O)N2c2c1ccc1ccccc21` (stereo not drawn) the value was > 40 µM (inactive); for `CCN1C(=O)C(=Cc2ccc(C)s2)C(=O)N(CC)C1=S`, > 40 µM (inactive).
Regarding `CC(C)(C)C(=O)/C(=C/c1cccc([N+](=O)[O-])c1)n1cncn1`, the EC50 was > 40 µM (inactive).
The value for `CCC1CCCCN1S(=O)(=O)c1ccc(S(=O)(=O)N(Cc2cccs2)C2CC2)cc1` (stereo not drawn) was > 40 µM (inactive); that for `O=C1/C(=C/c2cccnc2)CCC/C1=C\c1cccnc1` was > 40 µM (inactive).
For `COc1ccc(N(C(=O)C(C)C)S(=O)(=O)c2ccc(Cl)cc2)cc1` the value was > 40 µM (inactive); for `CCCCOC(=O)n1c(=O)oc2cc(S(=O)(=O)N3CCCCC3)ccc21`, > 40 µM (inactive); for `Cc1ccc(N2NC(=O)/C(=C\c3cc4c(cc3[N+](=O)[O-])OCO4)C2=O)cc1C`, > 40 µM (inactive).
As for `CN1C(=O)C(Cl)(Cl)C(=O)c2ccccc21`, the EC50 was > 40 µM (inactive).
In the case of `CCCn1[nH]cc(SC)c(=O)c1=O`, the EC50 was > 40 µM (inactive).
For `CCCCCCCCn1c(=O)c(C(=O)OCC)c(O)c2ccccc21` the value was > 40 µM (inactive).
For `CS(=O)(=O)c1nc(-c2ccco2)cc(C(F)(F)F)n1` the value was > 40 µM (inactive); for `CCCCC(CC)Cn1c2nc3ccccc3nc2c2c(=N)oc(C)nc21` (stereo not drawn), > 40 µM (inactive); for `Cc1cc(N=Cc2c(O)ccc3ccccc23)no1`, > 40 µM (inactive).
For `O=C(/C=C(\O)c1ccc(Cl)cc1)C(=O)NNC(=O)C(O)(c1ccccc1)c1ccccc1` the value was > 40 µM (inactive); for `COC(=O)C1=C(C(=O)OC)C(c2cc(Br)ccc2O)c2sc(=O)[nH]c2S1` (stereo not drawn), > 40 µM (inactive).
`CC(=NCCc1c(C)[nH]c2ccc(C)cc12)C1=C(O)CC(c2ccccc2)CC1=O` (stereo not drawn): the EC50 is > 40 µM (inactive).
On to `CC1CCCCN1C(=S)Nc1ccc2nc3n(c(=O)c2c1)CCCCC3` (stereo not drawn), for which the EC50 is > 40 µM (inactive).
For `O=C1CC(c2ccccc2)CC(O)=C1C=NCCN1CCN(C(=O)Cc2ccccc2)CC1` (stereo not drawn) the value was > 40 µM (inactive).
For `O=C(c1c[nH]c(C(=O)C(Cl)(Cl)Cl)c1)c1ccccc1Cl` the value was > 40 µM (inactive); for `C/C(=N\NC(=O)c1ccccc1O)c1c(O)cc(C)oc1=O`, > 40 µM (inactive); for `O=C1NCC2=C1C(c1ccc(Br)cc1)Nc1ccccc1N2` (stereo not drawn), > 40 µM (inactive).
The value for `CC(C)(C)OC(=O)[C@H]1[C@H](c2ccc([N+](=O)[O-])cc2)C2(C(=O)c3ccccc3C2=O)C2c3ccccc3C=NN21` (stereo partly drawn) was > 40 µM (inactive).
Regarding `COc1ccc(/C=C/C(=O)C2C(=O)C=C(C)OC2=O)cc1O` (stereo not drawn), the EC50 was > 40 µM (inactive).
For `Cc1ccsc1C(=O)Nc1nnc(-c2ccco2)o1` the value was > 40 µM (inactive).
For `COC(=O)C1=C(C(=O)OC)C(c2ccccc2O)c2sc(=O)[nH]c2S1` (stereo not drawn), the EC50 was > 40 µM (inactive).
The value for `COC(=O)c1sc(S(=O)(=O)Nc2ccc(Br)cc2)c(C(=O)OC)c1C` was > 40 µM (inactive).
The value for `CCOc1cc(Br)c(Br)c(C=Nc2ccc(NC(C)=O)cc2)c1O` was > 40 µM (inactive); that for `O=c1c(Cl)c(NCCCO)cnn1-c1nc2ccccc2[nH]1` was > 40 µM (inactive); that for `Oc1ccc(Br)cc1C=Nc1ccc2[nH]ncc2c1` was > 40 µM (inactive).
The value for `CN1C/C(=C/c2cccnc2)C(=O)/C(=C/c2cccnc2)C1` was > 40 µM (inactive); that for `O=C1Nc2ccccc2C12OCC1(CO2)COC2(OC1)C(=O)Nc1ccccc12` (stereo not drawn) was > 40 µM (inactive); that for `CC[n+]1c(/C=C2\C=C(C)CC(C)(C)C2)sc2ccccc21` was > 40 µM (inactive).
`O=C(Cn1nc(Cl)nc1Cl)c1cc2ccccc2oc1=O`: the EC50 is > 40 µM (inactive).
The value for `COc1ccc(CN2CCN(C(=O)COc3cccc(C)c3)CC2)c(OC)c1` was > 40 µM (inactive); that for `COCCCNc1c2c3c(cccc3[nH]c1=O)C(=O)c1ccccc1-2` was > 40 µM (inactive).
The value for `CCc1cc2c(=O)c(Oc3ccccc3)c(C)oc2cc1O` was > 40 µM (inactive); that for `Cc1nonc1NC(=O)CSc1nc(C2CCCCC2)nc2ccccc12` was > 40 µM (inactive).
For `CC1CCCN(c2nc3ccccc3nc2C(C#N)C(=O)OC2CCCCC2)C1` (stereo not drawn) the value was > 40 µM (inactive).
As for `Cc1nc2ccccc2n1-c1ccccc1`, the EC50 is > 40 µM (inactive).
The value for `Cc1ccc(N/C(C(Cl)=C(Cl)Cl)=C(/Cl)[N+](=O)[O-])c(C)c1` was > 40 µM (inactive).
For `COc1ccc(-c2noc(CSc3nnc(-c4ccncc4)n3-c3ccc(F)cc3)n2)cc1OC` the value was > 40 µM (inactive).
The value for `CCOC(=O)C1Cc2cc3c(cc2C1=O)CC(C(=O)OCC)C3=O` (stereo not drawn) was > 40 µM (inactive); that for `CCCCCCC1C(C#N)=C(N)OC2=C1C(=O)CC(C)(C)C2` (stereo not drawn) was > 40 µM (inactive); that for `CCCCNC(=O)/C(C#N)=C/c1cccnc1` was > 40 µM (inactive).
Regarding `CC1CC(C)CN(S(=O)(=O)c2cccc(C(=O)N3C(=O)c4cccc(N)c4C3=O)c2)C1` (stereo not drawn), the EC50 is > 40 µM (inactive).

As usually defined, the EC50 is the midpoint of the concentration-response curve.
